This is an account of results in ChEMBL document CHEMBL1140248, “3-(1,2,3-Triazol-1-yl)-1-thio-galactosides as small, efficient, and hydrolytically stable inhibitors of galectin-3” (Bioorg Med Chem Lett, 2005).

For the first assay, the target named is Galectin-3 (Mus musculus) (UniProt P16110). Briefly: Relative affinity for mouse Galectin-3 compared to D-galactose-methyl-beta-glycoside. In kind it is functional.
Sequence of Galectin-3 (Mus musculus) (P16110 whole entry): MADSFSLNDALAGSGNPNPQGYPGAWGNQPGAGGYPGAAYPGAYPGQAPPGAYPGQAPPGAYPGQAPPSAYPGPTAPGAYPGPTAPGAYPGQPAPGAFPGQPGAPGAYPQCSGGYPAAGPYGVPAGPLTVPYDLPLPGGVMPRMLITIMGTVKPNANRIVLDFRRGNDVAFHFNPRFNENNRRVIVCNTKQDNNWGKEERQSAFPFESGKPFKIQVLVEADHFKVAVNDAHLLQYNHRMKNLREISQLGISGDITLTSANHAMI
Regarding `CSC1OC(CO)C(O)C(n2ccnn2)C1O` (stereo not drawn), the Affinity is under 0.2.

Take `CSC1OC(CO)C(O)C(n2cc(C(=O)NCCCO)nn2)C1O` (stereo not drawn): the Affinity came out at 12. The molecule `CNC(=O)c1cn(C2C(O)C(CO)OC(SC)C2O)nn1` (stereo not drawn) returned an Affinity of 19.

As for `CCCc1cn(C2C(O)C(CO)OC(SC)C2O)nn1` (stereo not drawn), the Affinity is 1. The molecule LACTOSE, ANHYDROUS displayed an Affinity of 20. Regarding `COC(=O)c1cn(C2C(O)C(CO)OC(SC)C2O)nn1` (stereo not drawn), the Affinity worked out at 3.2. In the case of `CS[C@H]1O[C@@H](COC2O[C@@H](O)[C@H](O)[C@@H](O)[C@H]2O)[C@H](O)[C@@H](NC(=O)c2ccc3ccccc3c2)[C@@H]1O` (stereo partly drawn), the Affinity turned out to be 1. On the same count and under the same terms, for `CSC1OC(CO)C(O)C(NC(=O)c2ccc3ccccc3c2)C1O` (stereo not drawn) the value was 16; for `CSC1OC(CO)C(O)C(n2cc(-c3ccccc3)nn2)C1O` (stereo not drawn), 29; for `CSC1OC(CO)C(O)C(NC(=O)c2ccccc2)C1O` (stereo not drawn), 1.7. `CSC1OC(CO)C(O)C(n2cc(C(=O)NCc3ccccc3)nn2)C1O` (stereo not drawn): the Affinity stood at 42. Same read-out and setting: the value for `CSC1OC(CO)C(O)C(n2cc(C3(O)CCCCC3)nn2)C1O` (stereo not drawn) was 2.5; that for `CCCCNC(=O)c1cn(C2C(O)C(CO)OC(SC)C2O)nn1` (stereo not drawn) was 36; that for `CSC1OC(CO)C(O)C(n2cc(C(=O)NCCN3CCOCC3)nn2)C1O` (stereo not drawn) was 7.5. On the same count and under the same terms, for `CS[C@H]1O[C@@H](COC2O[C@@H](OC([C@H](O)CO)[C@H](O)[C@@H](NC(C)=O)C(C)=O)[C@H](O)[C@@H](O)[C@H]2O)[C@H](O)[C@@H](NC(=O)c2ccc3ccccc3c2)[C@@H]1O` (stereo partly drawn) the value was 64.

In a further assay the target is Galectin-3 (Mus musculus, UniProt P16110). Briefly: Dissociation constant for mouse Galectin-3.
Sequence of Galectin-3 (P16110 whole entry): as above
One may read the Kd as the free concentration of one partner at which half of the binding sites on the other are occupied at equilibrium, for simple one-to-one binding. A low value points to a tighter complex. For the molecule `CSC1OC(CO)C(O)C(n2ccnn2)C1O` (stereo not drawn), the Kd is over 20000 µM. For the molecule `CSC1OC(CO)C(O)C(n2cc(C(=O)NCCCO)nn2)C1O` (stereo not drawn), binding was characterised by a dissociation constant (Kd) of 386 µM. In turn, `CNC(=O)c1cn(C2C(O)C(CO)OC(SC)C2O)nn1` (stereo not drawn) came in with a dissociation constant (Kd) of 230 µM. On the same count and under the same terms, for `CCCc1cn(C2C(O)C(CO)OC(SC)C2O)nn1` (stereo not drawn) the value was 4600 µM; for `COC(=O)c1cn(C2C(O)C(CO)OC(SC)C2O)nn1` (stereo not drawn), 1410 µM. Same read-out and setting: the value for `CS[C@H]1O[C@@H](COC2O[C@@H](O)[C@H](O)[C@@H](O)[C@H]2O)[C@H](O)[C@@H](NC(=O)c2ccc3ccccc3c2)[C@@H]1O` (stereo partly drawn) was 4400 µM; that for `CSC1OC(CO)C(O)C(NC(=O)c2ccc3ccccc3c2)C1O` (stereo not drawn) was 272 µM. As to `CSC1OC(CO)C(O)C(n2cc(-c3ccccc3)nn2)C1O` (stereo not drawn), the Kd came out at 147 µM. On the same count and under the same terms, for `CSC1OC(CO)C(O)C(NC(=O)c2ccccc2)C1O` (stereo not drawn) the value was 2690 µM; for `CSC1OC(CO)C(O)C(n2cc(C3(O)CCCCC3)nn2)C1O` (stereo not drawn), 1750 µM; for `CCCCNC(=O)c1cn(C2C(O)C(CO)OC(SC)C2O)nn1` (stereo not drawn), 124 µM.

As to `CSC1OC(CO)C(O)C(n2cc(C(=O)NCCN3CCOCC3)nn2)C1O` (stereo not drawn), the dissociation constant Kd turned out to be 571 µM. On the same count and under the same terms, the value for `CS[C@H]1O[C@@H](COC2O[C@@H](OC([C@H](O)CO)[C@H](O)[C@@H](NC(C)=O)C(C)=O)[C@H](O)[C@@H](O)[C@H]2O)[C@H](O)[C@@H](NC(=O)c2ccc3ccccc3c2)[C@@H]1O` (stereo partly drawn) was 67 µM.
